In patent US7601883B2, “Mammalian sour/acid taste and CSF receptor genes, polypeptides and assays” (The Regents of the University of California, priority 2005, dated 2009):

Assays:
[1] = system: taste receptor cells of the tongue; test: Tastant-induced chorda tympani nerve recordings, wild-type mice; type: in vivo, mouse; details: wild-type mice (WT); lingual stimulation; normalized to the response to 60 mM AceK
Description: (§1) To validate this approach as a means of uncovering TRC function, we first generated mice where T1R2-regulatory sequences were used to target DTA expression^25. T1R2 is an essential subunit of the sweet receptor heterodimer (T1R2+3), and the selective ablation of these cells should generate animals with a specific loss of sweet taste^6,9,10,17. To investigate the taste responses of the genetically modified mice, we recorded tastant-induced action potentials from nerves innervating taste receptor cells of the tongue; this physiological assay monitors the activity of the taste system at the periphery, and provides an accurate and reliable measure of taste receptor cell function. […] Next, we engineered animals where the PKD2L1 gene was used to target Cre recombinase into PKD2L1-expressing cells; appropriate expression was confirmed by performing double labeling with Cre and probes specific to PKD2L1-cells, or by crossing them to GFP reporter lines^26. Mice expressing Cre in PKD2L1 cells were crossed to conditional DTA lines, and double-positive progeny were scrutinized both for the specificity and efficiency of killing, as well as the integrity of taste buds.
(§2) Lingual stimulation and recording procedures were performed as previously described^7,9. Neural signals were amplified (10,000×) with a Grass P511 AC amplifier (Astro-Med), digitized with a Digidata 1200B A/D converter (Axon Instruments), and integrated (r.m.s. voltage) with a time constant of 0.5 s. Taste stimuli were presented at a constant flow rate of 4 ml min^−1 for 20 s intervals interspersed by 2 min rinses with artificial saliva^7,9 between presentations. All data analyses used the integrated response over a 25 s period immediately after the application of the stimulus. The mean response to 60 mM AceK was used to normalize responses to each experimental series. Tastants used for nerve recordings were: 10 mM, 60 mM acesulfameK (AceK); 10 mM, 60 mM sodium saccharin (saccharin); 300 mM sucrose; 30 mM mono potassium glutamate+1 mM inosine mono phosphate (Glu); 30 mM L alanine+1 mM inosine mono phosphate (Ala); 10 mM quinine hydrochloride (Qui); 100 μM cycloheximide (Cyx); 10 mM 6-n-propyl 2-thiouracil (PROP); 50 mM, 100 mM sodium chloride (NaCl); 10 mM, 50 mM citric acid; 10 mM, 50 mM tartaric acid; 50 mM, 500 mM acetic acid; pH 2 hydrochloric acid (HCl); 10 mM citric acid pH 2, 4 and 6.
Shown are integrated chorda tympani responses normalized to the response to 60 mM AceK; see herein for details on the ablated lines and concentrations of tastants. […] Wild type, black bars; PKD2L1-DTA, outline bars. The values are means±s.e.m. (n=5) of normalized chorda tympani responses. (c) Quantitation of acid responses of wild type (gray bars) and PKD2L1-DTA animals (outline bars). The values are means±s.e.m. (n=6).

[2] = system: PKD2L1-expressing TRCs; test: Tastant-induced chorda tympani nerve recordings, mice with DTA ablation of PKD2L1-expressing cells; type: in vivo, mouse; details: PKD2L1-DTA mice (PKD2L1-expressing cells genetically ablated); range of 5 orders magnitude of proton concentrations
Description: as §1, §2

## [Cl-].[Na+] [NaCl, sodium chloride]
[1]
  neural responses to tastant (integrated chorda tympani responses): robust neural responses

## CC(=O)O [acetic acid]
[1]
  neural responses to tastant (integrated chorda tympani responses): robust neural responses
[2]
  nerve responses to acid tastants: completely abolished

## CC1=CC(=O)NS(=O)(=O)O1 [acesulfameK]
[1]
  neural responses to tastant (integrated chorda tympani responses): robust neural responses

## N[C@@H](CCC(=O)O)C(=O)[O-].[K+] [glutamate, mono potassium glutamate]
[1]
  neural responses to tastant (integrated chorda tympani responses): robust neural responses

## C=C[C@H]1CN2CC[C@H]1C[C@H]2[C@H](O)c1ccnc2ccc(OC)cc12.Cl [quinine, quinine hydrochloride]
[1]
  neural responses to tastant (integrated chorda tympani responses): robust neural responses

## O=C1NS(=O)(=O)c2ccccc21.[Na] [saccharin, sodium saccharin]
[1]
  neural responses to tastant (integrated chorda tympani responses): robust neural responses

## O=C(O)CC(O)(CC(=O)O)C(=O)O [citric acid]
[1]
  neural responses to tastant (integrated chorda tympani responses): robust neural responses
[2]
  nerve responses to acid tastants: completely abolished

## Cl [hydrochloric acid]
[1]
  neural responses to tastant (integrated chorda tympani responses): robust neural responses
[2]
  nerve responses to acid tastants: completely abolished

## O=C(O)C(O)C(O)C(=O)O (stereo not drawn) [tartaric acid]
[2]
  nerve responses to acid tastants: completely abolished
